Source: patent EP0571685A1, “Aryloxyheteroarylpropylamines, their preparation and use” (NOVO NORDISK A/S, priority 1992, dated 1993)

System: voltage operated calcium channels (VOC)
Experiment: Inhibition of depolarization-induced 45Ca uptake into brain synaptosomes
Format: biochemical
Conditions: crude synaptosomal preparation (P₂) from male Wistar rat cerebral cortex; depolarization with 145 mM KCl; 15 s uptake; corrected for basal uptake; estimated from dose response curves
Description: The pharmacological properties of the compounds of the invention can be illustrated by determining their capability to inhibit calcium uptake into brain synaptosomes.
Depolarization of neuronal membranes leads to an opening of socalled "voltage operated calcium channels" (VOC) in the membranes which allows a massive influx of calcium from the extracellular space. A crude synaptosomal preparation (socalled P₂ fraction) contains small vesicles surrounded by neuronal membrane and it is possible in such a preparation to study a depolarization-induced opening of VOC.
A male Wistar rat is decapitated and the cerebral cortex removed and homogenized in 10 ml. of ice-cold 0.32 M sucrose using a glass homogenizer with a teflon pestle. All subsequent steps for isolation of synaptosomes are done at 0-4°C. The homogenate is centrifuged at 1000 x g for 10 min and the resulting supernatant is re-centrifuged at 18000 x g for 20 min. This pellet (P₂) is resuspended in 0.32 M sucrose (5 ml per g of original tissue) with a teflon pestle.
The tubes are pre-incubated for 30 min on ice and then for 6 min at 37°C in a water bath.
The incubation is continued for 15 s.
The amount of radioactivity on the filter disc is determined by liquid scintillation spectrometry.
Test substances are dissolved in 10 ml of 48% ethanol at a concentration of 0.44 mg/ml. Dilution are made in 48% ethanol to give final concentrations of 0.1, 0.3, 1, 3 and 10 µg/ml. Experiments are performed in triplicate. Controls for depolarized and nondepolarized samples are included in the assay and test substances are only tested in depolarized samples.
The test value will be given as IC₅₀ (the concentration (µg/ml) of test substance which inhibit 50% of stimulated uptake of ⁴⁵Ca (uptake in depolarized samples corrected for basal uptake in nondepolarized samples )). The IC₅₀ value is estimated from dose response curves.

Structure (SMILES)	IC₅₀ (concentration of test substance which inhibit 50% of stimulated uptake of ⁴⁵Ca) [µg/mL]
CN(C)CCC(Oc1ccc(C(F)(F)F)cc1)c1cccs1.O=C(O)C(=O)O (stereo not shown) [Compound 23, N,N-dimethyl-3-(2-thienyl)-3-(4-trifluoromethylphenoxy)propanamine, oxalate]	8.6
CN(C)CCC(Oc1ccc(-c2ccccc2)cc1)c1ccc(Br)s1.O=C(O)C(=O)O (stereo not shown) [Compound 22, 3-(5-Bromo-2-thienyl)-N,N-dimethyl-3-(4-phenylphenoxy)propanamine, oxalate]	4.4
CN(C)CCC(Oc1ccc(C(F)(F)F)cc1)c1ccsc1.Cl (stereo not shown) [Compound 27, N,N-dimethyl-3-(3-thienyl)-3-(4-trifluoromethylphenoxy)propanamine, hydrochloride]	13
CCCCNCCC(Oc1ccc(C#N)cc1)c1cc(C)sc1C.O=C(O)C(=O)O (stereo not shown) [Compound 3, N-butyl-3-(4-cyanophenoxy)-3-(2,5-dimethyl-3-thienyl)propanamine, oxalate]	6.6
FC(F)(F)c1cccc(OC(CCN2CCCCC2)c2ccc(Cl)s2)c1.O=C(O)C(=O)O (stereo not shown) [Compound 18, 1-(3-(5-chloro-2-thienyl)-3-(3-trifluoromethylphenoxy)propyl)piperidine, oxalate]	7.3
FC(F)(F)c1ccc(OC(CCN2CCCCC2)c2ccc(Cl)s2)cc1.O=C(O)C(=O)O (stereo not shown) [Compound 15, 1-(3-(5-chloro-2-thienyl)-3-(4-trifluoromethylphenoxy)propyl)piperidine, oxalate]	2.4
CN(C)CCC(Oc1ccc(Oc2ccccc2)cc1)c1ccc(Br)s1.O=C(O)C(=O)O (stereo not shown) [Compound 21, 3-(5-Bromo-2-thienyl)-N,N-dimethyl-3-(4-phenoxyphenoxy)propanamine, oxalate]	5.9
N#Cc1cccc(OC(CCN2CCCCC2)c2ccc(Cl)s2)c1.O=C(O)C(=O)O (stereo not shown) [Compound 16, 1-(3-(5-chloro-2-thienyl)-3-(3-cyanophenoxy)propyl)piperidine, oxalate]	12.0
CSc1ccc(OC(CCN(C)C)c2ccc(Br)s2)cc1.O=C(O)C(=O)O (stereo not shown) [Compound 19, 3-(5-Bromo-2-thienyl)-N,N-dimethyl-3-(4-(methylthio)phenoxy)propanamine, oxalate]	4.4
FC(F)(F)c1ccc(OC(CCN2CCCCC2)c2cccs2)cc1.O=C(O)C(=O)O (stereo not shown) [Compound 24, 1-(3-(2-Thienyl)-3-(4-trifluoromethylphenoxy)propyl)piperidine, oxalate]	5.8
FC(F)(F)c1ccccc1OC(CCN1CCCCC1)c1ccc(Cl)s1.O=C(O)C(=O)O (stereo not shown) [Compound 17, 1-(3-(5-chloro-2-thienyl)-3-(2-trifluoromethylphenoxy)propyl)piperidine, oxalate]	3.0
CCCCNCCC(Oc1ccc(C(F)(F)F)cc1)c1cc(C)sc1C.O=C(O)C(=O)O (stereo not shown) [Compound 4, N-butyl-3-(2,5-dimethyl-3-thienyl)-3-(4-trifluoromethylphenoxy)propanamine, oxalate]	3.8
Cc1coc(C)c1C(CCN(C)C)Oc1ccc(C(F)(F)F)cc1.O=C(O)C(=O)O (stereo not shown) [Compound 11, N,N-Dimethyl-3-(2,4-dimethyl-3-furyl)-3-(4-trifluoromethylphenoxy)propaneamine, oxalate]	10.3
